Consider 22 compounds from patent publication US8324250B2 (Hoffmann-La Roche Inc., priority 2009, dated 2012).

What is called Ki is the equilibrium dissociation constant of an inhibitor or competing ligand from its target.

In the assay the target is T1, recombinant human NK3 receptor (Homo sapiens, UniProt P29371).
T1 construct: expressed in transfected cells; host or cells: HEK293 cells (transient expression), membranes
T1 sequence (P29371 1-465): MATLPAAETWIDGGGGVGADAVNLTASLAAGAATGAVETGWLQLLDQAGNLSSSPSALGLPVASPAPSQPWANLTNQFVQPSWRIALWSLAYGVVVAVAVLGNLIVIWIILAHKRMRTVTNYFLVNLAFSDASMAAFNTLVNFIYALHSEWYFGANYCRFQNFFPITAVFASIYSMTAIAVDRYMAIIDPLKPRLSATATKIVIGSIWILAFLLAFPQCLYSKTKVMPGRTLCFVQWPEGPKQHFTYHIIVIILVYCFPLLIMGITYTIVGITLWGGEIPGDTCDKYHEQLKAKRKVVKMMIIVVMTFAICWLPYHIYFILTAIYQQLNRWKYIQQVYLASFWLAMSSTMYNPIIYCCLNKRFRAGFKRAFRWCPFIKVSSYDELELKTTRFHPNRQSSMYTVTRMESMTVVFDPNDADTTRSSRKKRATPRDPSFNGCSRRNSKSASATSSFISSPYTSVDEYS
The assay can be described thus: [3H]SR142801 competition binding assay. The following applies: membranes from HEK293 cells transiently expressing recombinant human NK3 receptor; [3H]SR142801 radioligand; 75 min at RT; Ki by Cheng-Prussoff; read-out: Data Ki (hNK-3 receptor affinity). How it is done:
[^3H]SR142801 Competition Binding Assay
hNK3 receptor binding experiment were performed using [^3H]SR142801 (Catalog No. TRK1035, specific activity: 74.0 Ci/mmol, Amersham, GE Healthcare UK limited, Buckinghamshire, UK) and membrane isolated from HEK293 cells transiently expressing recombinant human NK3 receptor. After thawing, the membrane homogenates were centrifuged at 48,000×g for 10 min at 4° C., the pellets were resuspended in the 50 mM Tris-HCl, 4 mM MnCl2, 1 μM phosphoramidon, 0.1% BSA binding buffer at pH 7.4 to a final assay concentration of 5 μg protein/well. […] At the end of the incubation, membranes were filtered onto unitfilter (96-well white microplate with bonded GF/C filter preincubated 1 h in 0.3% PEI+0.3% BSA, Packard BioScience, Meriden, Conn.) with a Filtermate 196 harvester (Packard BioScience) and washed 4 times with ice-cold 50 mM Tris-HCl, pH 7.4 buffer. Nonspecific binding was measured in the presence of 10 μM SB222200 for both radioligands. The radioactivity on the filter was counted (5 min) on a Packard Top-count microplate scintillation counter with quenching correction after addition of 45 μl of microscint 40 (Can berra Packard S. A., Zurich, Switzerland) and shaking for 1 h. Inhibition curves were fitted according to the Hill equation: y=100/(1+(x/IC50)^nH), where nH=slope factor using Excel-fit 4 software (Microsoft). IC50 values were derived from the inhibition curve and the affinity constant (Ki) values were calculated using the Cheng-Prussoff equation Ki═IC50/(1+[L]/KD) where [L] is the concentration of radioligand and KD is its dissociation constant at the receptor, derived from the saturation isotherm. All experiments were performed in duplicate and the mean±standard error (SEM) of the individual Ki values was calculated.
With `Cc1nc(-c2ccc(C(=O)N3CCC(C(=O)N[C@H](c4cccc(F)c4)C4CC4)(c4ccc(F)cc4)CC3)cc2)no1` [Example 197, 4-(4-Fluoro-phenyl)-1-[4-(5-methyl-[1,2,4]oxadiazol-3-yl)-benzoyl]-piperidine-4-carboxylic acid [(S)-cyclopropyl-(3-fluoro-phenyl)-methyl]-amide], the inhibition constant (Ki) came out at 7.1 nM.

`C[C@H](NC(=O)C1(c2ccccc2)CCN(C(=O)c2ccc(N3CCOCC3)cc2)CC1)c1ccccc1` [Example 8, 1-(4-Morpholin-4-yl-benzoyl)-4-phenyl-piperidine-4-carboxylic acid ((S)-l-phenyl-ethyl)-amide]: the Ki turned out to be 84.4 nM.

`Cc1ccc(NNC(=O)C2(c3ccc(F)cc3)CCN(C(=O)c3ccc(-c4ccc(F)cc4)cc3)CC2)cc1` [Example 187, 1-(4′-Fluoro-biphenyl-4-carbonyl)-4-(4-fluoro-phenyl)-piperidine-4-carboxylic acid N′-p-tolyl-hydrazide]: the Ki worked out at 76.7 nM.

As to `Cc1noc(-c2ccc(C(=O)N3CCC(C(=O)N(C)Cc4ccc(F)cc4)(c4ccccc4)CC3)cc2)n1` [Example 105, 1-[4-(3-Methyl-[1,2,4]oxa-diazol-5-yl)-benzoyl]-4-phenyl-piperidine-4-carboxylic acid (4-fluoro-benzyl)-methyl-amide], the inhibition constant Ki came to 5.2 nM.

Turning to `Cc1nc(-c2ccc(C(=O)N3CCC(C(=O)NC(c4ccc(F)cc4)C(F)(F)F)(c4ccc(F)cc4)CC3)cc2)no1` (stereo not shown) [Example 165, 4-(4-Fluoro-phenyl)-1-[4-(5-methyl-[1,2,4]oxadiazol-3-yl)-benzoyl]-piperidne-4-carboxylic acid [2,2,2-trifluoro-1-(4-fluoro-phenyl)-ethyl]-amide], the inhibitory constant (Ki) was determined as 66 nM.

Regarding `C[C@H](NC(=O)C1(c2ccccc2)CCN(C(=O)N2CCN(C3CCCC3)CC2)CC1)c1ccccc1` [Example 215, 1-(4-Cyclopentyl-piperazine-1-carbonyl)-4-phenyl-piperidine-4-carboxylic acid ((S)-1-phenyl-ethyl)-amide], the inhibition constant (Ki) is 20.6 nM.

On to `O=C(c1ccc(-c2ccc(F)cc2)cc1)N1CCC(C(=O)NC(CC2CC2)c2ccccc2)(c2ccc(F)cc2)CC1` (stereo not shown) [Example 148, 1-(4′-Fluoro-biphenyl-4-carbonyl)-4-(4-fluoro-phenyl)-piperidine-4-carboxylic acid (2-cyclopropyl-1-phenyl-ethyl)-amide], for which the inhibitory constant (Ki) is 5.8 nM.

For the compound `O=C(c1ccc(N2CCCCC2=O)cc1)N1CCC(C(=O)N[C@H](c2cccc(F)c2)C2CC2)(c2ccc(F)cc2)CC1` [Example 198, 4-(4-Fluoro-phenyl)-1-[4-(2-oxo-piperidine-1-yl)-benzoyl]-piperidine-4-carboxylic acid [(S)-cyclopropyl-(3-fluoro-phenyl)-methyl]-amide], the inhibitory constant (Ki) turned out to be 21.5 nM.

Regarding `CC(C)C(NC(=O)C1(c2ccc(F)cc2)CCN(C(=O)c2ccc(-c3ccc(F)cc3)cc2)CC1)c1ccc(F)cc1` (stereo not shown) [Example 144, 1-(4′-Fluoro-biphenyl-carbonyl)-4-(4-fluoro-phenyl)-piperidne-4-carboxylic acid [1-(4-fluoro-phenyl)-2-methyl-propyl]-amide], the Ki came to 10.9 nM.

For `C[C@H](NC(=O)C1(c2ccccc2)CCN(C(=O)c2ccc(-c3ccccc3)cn2)CC1)c1ccccc1` [Example 38, 4-Phenyl-1-(5-phenyl-pyridine-2-carbonyl)-piperidine-4-carboxylic acid ((S)-1-phenyl-ethyl)-amide], the inhibitory constant (Ki) turned out to be 21.4 nM.

For the compound `C[C@H](NC(=O)C1(c2ccccc2)CCN(C(=O)c2ccc(N3CCS(=O)(=O)CC3)cc2)CC1)C1CCCCC1` [Example 80, 1-[4-(1,1 - Dioxo-1λ6-thiomorpholin-4-yl)-benzoyl]-4-phenyl-piperidine-4-carboxylic acid ((S)-1-cyclohexyl-ethyl)-amide], the inhibition constant (Ki) turned out to be 4.1 nM.

With `C[C@H](NC(=O)C1(c2ccc(F)cc2)CCN(C(=O)N2CCN(c3ccc(F)cc3)CC2)CC1)c1cccc(F)c1` [Example 178, 4-(4-Fluoro-phenyl)-1-[4-(4-fluoro-phenyl)-piperazine-1-carbonyl]-piperidine-4-carboxylic acid [(S)-1-(3-fluoro-phenyl)-ethyl]-amide], the inhibitory constant (Ki) was found to be 19 nM.

With `Cc1noc(-c2ccc(C(=O)N3CCC(C(=O)NC(c4ccc(F)cc4)C(C)C)(c4ccc(F)cc4)CC3)cc2)n1` (stereo not shown) [Example 158, 4-(4-Fluoro-phenyl)-1-[4-(3-methyl-[1,2,4]oxadiazol-5-yl)-benzoyl]-piperidine-4-carboxylic acid [1-(4-fluoro-phenyl)-2-methyl-propyl]-amide], the Ki amounted to 11 nM.

Take `C[C@H](NC(=O)C1(c2ccccc2)CCN(C(=O)c2ccc(-c3ccc(Cl)c(Cl)c3)cc2)CC1)c1ccccc1` [Example 4, 1-(3′,4′-Dichloro-biphenyl-4-carbonyl)-4-phenyl-piperidine-4-carboxylic acid ((S)-1-phenyl-ethyl)-amide]: the Ki came out at 19.6 nM.

In the case of `O=C(N1CCN(c2ccc(F)cc2)CC1)N1CCC(C(=O)NC2(c3ccc(F)cc3)CC2)(c2ccc(F)cc2)CC1` [Example 174], the Ki came to 24 nM.

Turning to `O=C(c1ccc(-c2ccc(F)cc2)cc1)N1CCC(C(=O)N[C@@H](c2cccc(F)c2)C2CC2)(c2ccc(F)cc2)CC1` [Example 194, 1-(4′-Fluoro-biphenyl-4-carbonyl)-4-(4-fluoro-phenyl)-piperidine-4-carboxylic acid [(R)-cyclopropyl-(3-fluoro-phenyl)-methyl]-amide], the Ki turned out to be 35 nM.

Consider `C[C@H](NC(=O)C1(c2ccccc2)CCN(C(=O)N2CCN(c3ccc(Cl)cn3)CC2)CC1)c1ccccc1` [Example 206, 1-[4-(5-Chloro-pyridin-2-yl)-piperazine-1-carbonyl]-4-phenyl-piperidine-4-carboxylic acid ((S)-1-phenyl-ethyl)-amide], for which the inhibition constant Ki stood at 79.8 nM.

With `Cc1nc(-c2ccc(C(=O)N3CCC(C(=O)N[C@@H](C)c4ccccc4)(c4ccccc4)CC3)cc2)no1` [Example 41, 1-[4-(5-Methyl-[1,2,4]oxa-diazol-3-yl)-benzoyl]-4-phenyl-piperidine-4-carboxylic acid ((S)-1-phenyl-ethyl)-amide], the inhibition constant Ki worked out at 9.4 nM.

In the case of `C[C@H](NC(=O)C1(c2ccccc2)CCN(C(=O)c2ccc(N3CCS(=O)(=O)CC3)cc2)CC1)c1ccccc1` [Example 9, 1-[4-(1,1-Dioxo-lλ6-thiomorpholin-4-yl)-benzoyl]-4-phenyl-piperidine-4-carboxylic acid ((S)-1-phenyl-ethyl)-amide], the inhibitory constant (Ki) was found to be 21.8 nM.

With `C[C@H](NC(=O)C1(c2ccccc2)CCN(C(=O)c2ccc(-n3cccc3)cc2)CC1)c1ccccc1` [Example 18, 4-Phenyl-1-(4-pyrrol-l-yl-benzoyl)-piperidine-4-carboxylic acid ((S)-1-phenyl-ethyl)-amide], the Ki was 96.6 nM.

For `Cc1cccc(N2CCN(C(=O)N3CCC(C(=O)N[C@@H](C)c4ccccc4)(c4ccccc4)CC3)CC2)c1` [Example 226, 4-Phenyl-1-(4-m-tolyl-piperazine-1-carbonyl)-piperidine-4-carboxylic acid ((S)-1-phenyl-ethyl)-amide], the Ki amounted to 64.8 nM.

`Cc1ccc(-c2nc(C(=O)N3CCC(C(=O)N[C@@H](C)c4ccccc4)(c4ccccc4)CC3)cs2)cc1` [Example 21, 4-Phenyl-1 - (2-p-tolyl-thiazole-4-carbonyl)-piperidine-4-carboxylic acid ((S)-1-phenyl-ethyl)-amide]: the inhibition constant Ki turned out to be 99.8 nM.
